In paper PMC3953731 (FEBS Open Bio, 2014):

T1: Ima5p (Saccharomyces cerevisiae, UniProt P40884)
T1 sequence (P40884 1-581): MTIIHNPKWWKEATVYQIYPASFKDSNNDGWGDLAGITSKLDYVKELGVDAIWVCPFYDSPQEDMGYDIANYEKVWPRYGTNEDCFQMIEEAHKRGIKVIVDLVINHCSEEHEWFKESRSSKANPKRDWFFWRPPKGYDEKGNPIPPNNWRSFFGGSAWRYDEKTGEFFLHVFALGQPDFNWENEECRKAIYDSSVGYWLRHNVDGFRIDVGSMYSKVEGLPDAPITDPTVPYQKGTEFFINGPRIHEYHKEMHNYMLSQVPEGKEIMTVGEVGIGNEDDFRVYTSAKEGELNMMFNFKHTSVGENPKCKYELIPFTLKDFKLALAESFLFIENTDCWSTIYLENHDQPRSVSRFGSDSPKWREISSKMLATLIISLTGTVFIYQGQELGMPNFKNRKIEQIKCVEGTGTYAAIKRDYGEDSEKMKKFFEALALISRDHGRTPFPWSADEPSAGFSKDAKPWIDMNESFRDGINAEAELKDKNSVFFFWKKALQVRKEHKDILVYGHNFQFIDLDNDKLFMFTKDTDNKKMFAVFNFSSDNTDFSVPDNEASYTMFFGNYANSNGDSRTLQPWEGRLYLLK

B1: Ima3p_R279Q: Ima3p variant with R279Q mutation (protein, UniProt P0CW40 1-589, looked up, variant R279Q)
Oligo-1,6-glucosidase IMA3: MTISSAHPETEPKWWKEATIYQIYPASFKDSNNDGWGDMKGIASKLEYIKELGTDAIWISPFYDSPQDDMGYDIANYEKVWPTYGTNEDCFALIEKTHKLGMKFITDLVINHCSSEHEWFKESRSSKTNPKRDWFFWRPPKGYDAEGKPIPPNNWRSYFGGSAWTFDEKTQEFYLRLFCSTQPDLNWENEDCRKAIYESAVGYWLDHGVDGFRIDVGSLYSKVAGLPDAPVIDENSKWQLSDPFTMNGPRIHEFHQEMNKFIRNRVKDGREIMTVGEMQHATDETKRLYTSASRHELSELFNFSHTDVGTSPKFRQNLIPYELKDWKVALAELFRYVNGTDCWSTIYLENHDQPRSITRFGDDSPKNRVISGKLLSVLLVSLSGTLYVYQGQELGEINFKNWPIEKYEDVEVRNNYDAIKEEHGENSKEMKRFLEAIALISRDHARTPMQWSREEPNAGFSGPNAKPWFYLNESFREGINAEDESKDPNSVLNFWKEALRFRKAHKDITVYGYDFEFIDLDNKKLFSFTKKYDNKTLFAALNFSSDSIDFTIPNNSSSFKLEFGNYPRSEVDASSRTLKPWEGRIYISE

Legend:
Ima1p [1] = molecular target: T2, Ima1p (Saccharomyces cerevisiae, UniProt P53051); assay: Substrate specificity of purified isomaltase; format: biochemical; settings: 100 mM substrate (pNPG 5 mM), pH 7, 30 °C; for Specific activities: citrate–potassium phosphate buffer
T2 sequence (P53051 whole entry): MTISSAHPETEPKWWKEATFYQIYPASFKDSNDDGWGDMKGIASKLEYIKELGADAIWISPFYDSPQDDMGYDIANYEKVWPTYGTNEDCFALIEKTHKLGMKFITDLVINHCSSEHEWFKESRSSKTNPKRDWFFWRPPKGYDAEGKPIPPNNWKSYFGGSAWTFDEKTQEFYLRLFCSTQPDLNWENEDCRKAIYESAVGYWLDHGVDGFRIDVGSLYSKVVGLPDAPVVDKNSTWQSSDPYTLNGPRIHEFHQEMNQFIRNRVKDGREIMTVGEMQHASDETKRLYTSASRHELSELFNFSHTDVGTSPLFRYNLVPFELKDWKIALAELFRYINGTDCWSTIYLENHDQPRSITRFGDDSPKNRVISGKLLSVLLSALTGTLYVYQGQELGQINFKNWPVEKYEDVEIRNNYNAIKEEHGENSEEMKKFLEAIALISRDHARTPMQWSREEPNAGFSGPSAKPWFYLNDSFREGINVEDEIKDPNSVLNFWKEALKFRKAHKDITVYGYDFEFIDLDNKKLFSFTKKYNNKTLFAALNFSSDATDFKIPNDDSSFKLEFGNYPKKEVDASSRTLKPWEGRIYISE

Ima2p [2] = molecular target: T3, Ima2p (Saccharomyces cerevisiae, UniProt Q08295); assay: Substrate specificity of purified isomaltase; format: biochemical; settings: 100 mM substrate (pNPG 5 mM), pH 7, 30 °C; for Specific activities: citrate–potassium phosphate buffer
T3 sequence (Q08295 whole entry): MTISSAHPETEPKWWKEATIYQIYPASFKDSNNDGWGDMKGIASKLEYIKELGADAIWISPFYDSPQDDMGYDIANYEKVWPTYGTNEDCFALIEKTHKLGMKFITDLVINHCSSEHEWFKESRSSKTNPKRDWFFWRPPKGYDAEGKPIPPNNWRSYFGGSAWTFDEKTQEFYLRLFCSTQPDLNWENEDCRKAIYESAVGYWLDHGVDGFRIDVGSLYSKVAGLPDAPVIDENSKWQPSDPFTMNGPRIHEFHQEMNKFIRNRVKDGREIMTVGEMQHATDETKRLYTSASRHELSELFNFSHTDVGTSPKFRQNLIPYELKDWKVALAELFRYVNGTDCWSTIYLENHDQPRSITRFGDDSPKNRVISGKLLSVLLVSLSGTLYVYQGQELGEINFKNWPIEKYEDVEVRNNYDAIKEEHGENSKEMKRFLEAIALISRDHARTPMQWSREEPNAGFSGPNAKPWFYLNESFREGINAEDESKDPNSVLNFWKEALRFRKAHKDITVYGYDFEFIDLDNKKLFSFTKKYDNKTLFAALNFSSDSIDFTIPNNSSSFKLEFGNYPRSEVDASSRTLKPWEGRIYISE

Ima3p [3] = molecular target: T4, Ima3p (Saccharomyces cerevisiae, UniProt P0CW40); assay: Substrate specificity of purified isomaltase; format: biochemical; settings: 100 mM substrate (pNPG 5 mM), pH 7, 30 °C; for Specific activities: citrate–potassium phosphate buffer
T4 sequence (P0CW40 whole entry): as the sequence (Q08295 whole entry) above, with A54T, P240L, Q279R counted along it

Ima5p [4] = molecular target: T1, Ima5p; assay: Substrate specificity of purified isomaltase; format: biochemical; settings: 100 mM substrate (pNPG 5 mM), pH 7, 30 °C; for Specific activities: citrate–potassium phosphate buffer
Ima3pL240P = Ima3pL240P (Saccharomyces cerevisiae, UniProt P0CW40, L240P); assay: Substrate specificity of purified isomaltase variant; format: biochemical; settings: 100 mM substrate (pNPG 5 mM), citrate–potassium phosphate buffer, pH 7, 30 °C
Sequence of Ima3pL240P (P0CW40 whole entry L240P): as the sequence (Q08295 whole entry) above, with A54T, Q279R counted along it

Ima3pR279Q = Ima3pR279Q (Saccharomyces cerevisiae, UniProt P0CW40, R279Q); assay: as above; format: biochemical; settings: 100 mM substrate (pNPG 5 mM), citrate–potassium phosphate buffer, pH 7, 30 °C
Ima1p [5] = molecular target: T2, Ima1p; assay: Kinetic parameters for selected substrates; format: biochemical; settings: for Km: affinity constant for the substrate; for Km / kcat: mean ± SEM; for Ki: inhibition by high concentration of substrate
Ima2p [6] = molecular target: T3, Ima2p; assay: Kinetic parameters for selected substrates; format: biochemical; settings: for Km: affinity constant for the substrate; for Km / kcat: mean ± SEM; for Ki: inhibition by high concentration of substrate
Ima3p [7] = molecular target: T4, Ima3p; assay: Kinetic parameters for selected substrates; format: biochemical; settings: for Km: affinity constant for the substrate; for Km / kcat: mean ± SEM; for Ki: inhibition by high concentration of substrate
Ima5p [8] = molecular target: T1, Ima5p; assay: Kinetic parameters for selected substrates; format: biochemical; settings: for Km: affinity constant for the substrate; for Km / kcat: mean ± SEM; for Ki: inhibition by high concentration of substrate
[9] = Thermostability assay: time-dependent heat inactivation, half-life; format: biochemical, Saccharomyces cerevisiae; settings: pNPG 5 mM, mean ± 2 SEM
[10] = Melting temperature by differential scanning fluorimetry; format: physicochemical, Saccharomyces cerevisiae; settings: pH 7, DSF, mean ± 2 SEM

Molecule | Specific activities (Ima1p [1]) | relative activity, velocity on isomaltose set to 100 (Ima1p [1]) | Specific activities (Ima2p [2]) | relative activity, velocity on isomaltose set to 100 (Ima2p [2]) | Specific activities (Ima3p [3]) | relative activity, velocity on isomaltose set to 100 (Ima3p [3]) | Specific activities (Ima5p [4]) | relative activity, velocity on isomaltose set to 100 (Ima5p [4]) | Specific activities (Ima3pL240P) | Specific activities (Ima3pR279Q) | Km (Ima1p [5]) | kcat (Ima1p [5]) | Km (Ima2p [6]) | kcat (Ima2p [6]) | Km (Ima3p [7]) | kcat (Ima3p [7]) | Km (Ima5p [8]) | kcat (Ima5p [8]) | Ki (Ima3p [7]) | Ki (Ima5p [8]) | also measured
OC[C@H]1O[C@H](OC[C@H]2O[C@H](O)[C@H](O)[C@@H](O)[C@@H]2O)[C@H](O)[C@@H](O)[C@@H]1O [Isomaltose, O-α-D-Glucosyl-(1→6)-α-D-glucose] | 60 µmol/min/mg | 100% | 54 µmol/min/mg | 100% | 7.2 µmol/min/mg | 100% | 65 µmol/min/mg | 100% | 2.2 µmol/min/mg | 29 µmol/min/mg | 17 ± 4 mM | 103 ± 12 s⁻¹ | 17 ± 2 mM | 97 ± 5 s⁻¹ | 37 ± 9 mM | 15 ± 2 s⁻¹ | 13 ± 2 mM | 101 ± 8 s⁻¹ | – | – | –
OC[C@H]1O[C@H](OC[C@H]2O[C@H](OC[C@H]3OC(O)[C@H](O)[C@@H](O)[C@@H]3O)[C@H](O)[C@@H](O)[C@@H]2O)[C@H](O)[C@@H](O)[C@@H]1O (stereo partly drawn) [Isomaltotriose, O-α-D-Glucosyl-(1→6)-α-D-glucosyl-(1→6)-D-glucose] | 7.9 µmol/min/mg | 13% | 7.6 µmol/min/mg | 14% | 0 µmol/min/mg | – | 8.6 µmol/min/mg | 13% | – | – | – | 21 ± 4 s⁻¹ | 72 ± 16 mM | 15 ± 2 s⁻¹ | – | 0 s⁻¹ | 83 ± 25 mM | 18 ± 3 s⁻¹ | None | None | Ki (Ima1p [5]): None; Ki (Ima2p [6]): None
OC[C@H]1O[C@H](O[C@@H]2COC(O)(CO)[C@@H](O)[C@@H]2O)[C@H](O)[C@@H](O)[C@@H]1O (stereo partly drawn) [Leucrose, O-α-D-Glucosyl-(1→5)-D-fructose] | 8.6 µmol/min/mg | 14% | 8.6 µmol/min/mg | 16% | 0 µmol/min/mg | – | 1.1 µmol/min/mg | 2% | 0 µmol/min/mg | 1.5 µmol/min/mg | – | – | – | – | – | – | – | – | – | – | –
OC[C@H]1O[C@H](OC[C@H]2OC(O)(CO)[C@@H](O)[C@@H]2O)[C@H](O)[C@@H](O)[C@@H]1O (stereo partly drawn) [Palatinose, O-α-D-Glucosyl-(1→6)-D-fructose] | 52 µmol/min/mg | 87% | 74 µmol/min/mg | 137% | 5 µmol/min/mg | 69% | 39 µmol/min/mg | 60% | 2.8 µmol/min/mg | 33 µmol/min/mg | 18 ± 4 mM | 78 ± 8 s⁻¹ | 11 ± 2 mM | 104 ± 6 s⁻¹ | 7 ± 0.7 mM | 6.0 ± 0.1 s⁻¹ | 12 ± 3 mM | 56 ± 5 s⁻¹ | None | – | –
OC[C@H]1O[C@H](OC[C@H]2O[C@H](O[C@H]3[C@H](O)[C@@H](O)C(O)O[C@@H]3CO)[C@H](O)[C@@H](O)[C@@H]2O)[C@H](O)[C@@H](O)[C@@H]1O (stereo partly drawn) [Panose, O-α-D-Glucosyl-(1→6)-α-D-glucosyl-(1→4)-D-glucose] | 3.1 µmol/min/mg | 5% | 2.9 µmol/min/mg | 5% | 0 µmol/min/mg | – | 11 µmol/min/mg | 17% | 0 µmol/min/mg | 3.1 µmol/min/mg | 82 ± 17 mM | 6.3 ± 0.5 s⁻¹ | – | 7.7 ± 0.7 s⁻¹ | – | 0 s⁻¹ | 82 ± 12 mM | 23 ± 1 s⁻¹ | None | None | Ki (Ima1p [5]): None; Ki (Ima2p [6]): None; more activity of Ima5p than Ima1p (Ima5p [8]; whatsoever the panose concentration): 3.5 fold
OC[C@H]1O[C@@](CO)(O[C@H]2O[C@H](CO)[C@@H](O)[C@H](O)[C@H]2O)[C@@H](O)[C@@H]1O [Sucrose, O-α-D-Glucosyl-(1→2)-β-D-fructose] | 18.6 µmol/min/mg | 31% | 19.7 µmol/min/mg | 36% | 10.2 µmol/min/mg | 142% | 1.2 µmol/min/mg | 2% | 11.2 µmol/min/mg | 22 µmol/min/mg | – | 51 ± 4 s⁻¹ | – | 55 ± 4 s⁻¹ | – | 25 ± 1 s⁻¹ | – | 3.8 ± 0.2 s⁻¹ | None | None | relative activity, velocity on isomaltose set to 100 (Ima1p [1]; listed as sucrose): approx. 35%; relative activity, velocity on isomaltose set to 100 (Ima2p [2]; listed as sucrose): approx. 35%; Ki (Ima1p [5]): None; Ki (Ima2p [6]): None; catalytic efficiency on sucrose, times lower than on isomaltose (Ima3p [7]): 2 times; catalytic efficiency on sucrose, times lower than on palatinose (Ima3p [7]): 4 times; lower activity of Ima5p than Ima1p (Ima5p [8]): 10 fold
COC1OC(CO)C(O)C(O)C1O (stereo not drawn) [α-MG, α-Methylglucopyranoside] | 52 µmol/min/mg | 87% | 55 µmol/min/mg | 102% | 11 µmol/min/mg | 153% | 0 (0) μmol/min/mg | 0 (0) % | 6.5 µmol/min/mg | 50 µmol/min/mg | 27 ± 5 mM | 84 ± 8 s⁻¹ | 28 ± 6 mM | 88 ± 9 s⁻¹ | 15 ± 2 mM | 14 ± 1 s⁻¹ | – | 0 s⁻¹ | None | None | –
B1 | – | – | – | – | – | – | – | – | – | – | – | – | – | – | – | – | – | – | – | – | t1/2 ([9]; 37 °C): 9.5 ± 1.7 min; t1/2 ([9]; 40 °C): 2.0 ± 0.3 min; Tm [10]: 37.6 ± 0.8 °C
